Data published in ChEMBL document CHEMBL4177730, “Rational modification of semaxanib and sunitinib for developing a tumor growth inhibitor targeting ATP binding site of tyrosine kinase” (2018).
Active and inactive are the calls of the source.

Experiments:
Assay type in all cases: functional, cell-based
SF-268 = assay: Growth inhibition of human SF268 cells at 10 uM after 48 hrs by sulforhodamine B assay
HCT-15 = assay: Growth inhibition of human HCT15 cells at 10 uM after 48 hrs by sulforhodamine B assay
Hs-578T = assay: Growth inhibition of human Hs 578T cells at 10 uM after 48 hrs by sulforhodamine B assay
MDA-MB-468 = assay: Growth inhibition of human MDA-MB-468 cells at 10 uM after 48 hrs by sulforhodamine B assay
COLO 205 = assay: Growth inhibition of human COLO205 cells at 10 uM after 48 hrs by sulforhodamine B assay
SNB-75 = assay: Growth inhibition of human SNB75 cells at 10 uM after 48 hrs by sulforhodamine B assay
MDA-MB-435 = assay: Growth inhibition of human MDA-MB-435 cells at 10 uM after 48 hrs by sulforhodamine B assay
MCF7 = assay: Growth inhibition of human MCF7 cells at 10 uM after 48 hrs by sulforhodamine B assay
NCI-H226 = assay: Growth inhibition of human NCI-H226 cells at 10 uM after 48 hrs by sulforhodamine B assay
UACC-62 = assay: Growth inhibition of human UACC62 cells at 10 uM after 48 hrs by sulforhodamine B assay
BT-549 = assay: Growth inhibition of human BT549 cells at 10 uM after 48 hrs by sulforhodamine B assay
NCI-H460 = assay: Growth inhibition of human NCI-H460 cells at 10 uM after 48 hrs by sulforhodamine B assay
RPMI-8226 = assay: Growth inhibition of human RPMI8226 cells at 10 uM after 48 hrs by sulforhodamine B assay
SF-539 = assay: Growth inhibition of human SF539 cells at 10 uM after 48 hrs by sulforhodamine B assay
NCI-H322M = assay: Growth inhibition of human NCI-H322M cells at 10 uM after 48 hrs by sulforhodamine B assay
K562 = assay: Growth inhibition of human K562 cells at 10 uM after 48 hrs by sulforhodamine B assay
HL-60(TB) = assay: Growth inhibition of human HL-60(TB) cells at 10 uM after 48 hrs by sulforhodamine B assay
SR = assay: Growth inhibition of human SR cells at 10 uM after 48 hrs by sulforhodamine B assay
PC-3 = assay: Growth inhibition of human PC3 cells at 10 uM after 48 hrs by sulforhodamine B assay
Malme-3M = assay: Growth inhibition of human MALME-3M cells at 10 uM after 48 hrs by sulforhodamine B assay
ACHN = assay: Growth inhibition of human ACHN cells at 10 uM after 48 hrs by sulforhodamine B assay
SK-MEL-5 = assay: Growth inhibition of human SK-MEL-5 cells at 10 uM after 48 hrs by sulforhodamine B assay
NCI-H23 = assay: Growth inhibition of human NCI-H23 cells at 10 uM after 48 hrs by sulforhodamine B assay
SN12C = assay: Growth inhibition of human SN12C cells at 10 uM after 48 hrs by sulforhodamine B assay
T47D = assay: Growth inhibition of human T47D cells at 10 uM after 48 hrs by sulforhodamine B assay
SK-MEL-2 = assay: Growth inhibition of human SK-MEL-2 cells at 10 uM after 48 hrs by sulforhodamine B assay
MOLT-4 = assay: Growth inhibition of human MOLT4 cells at 10 uM after 48 hrs by sulforhodamine B assay
LOX IMVI = assay: Growth inhibition of human LOXIMVI cells at 10 uM after 48 hrs by sulforhodamine B assay
NCI-H522 = assay: Growth inhibition of human NCI-H522 cells at 10 uM after 48 hrs by sulforhodamine B assay
SF-295 = assay: Growth inhibition of human SF295 cells at 10 uM after 48 hrs by sulforhodamine B assay
NCI/ADR-RES = assay: Growth inhibition of human NCI-ADR-RES cells at 10 uM after 48 hrs by sulforhodamine B assay
EKVX = assay: Growth inhibition of human EKVX cells at 10 uM after 48 hrs by sulforhodamine B assay
SK-MEL-28 = assay: Growth inhibition of human SK-MEL-28 cells at 10 uM after 48 hrs by sulforhodamine B assay
OVCAR-4 = assay: Growth inhibition of human OVCAR4 cells at 10 uM after 48 hrs by sulforhodamine B assay
A498 = assay: Growth inhibition of human A498 cells at 10 uM after 48 hrs by sulforhodamine B assay
CCRF-CEM = assay: Growth inhibition of human CCRF-CEM cells at 10 uM after 48 hrs by sulforhodamine B assay
SW-620 = assay: Growth inhibition of human SW620 cells at 10 uM after 48 hrs by sulforhodamine B assay
HCT-116 = assay: Growth inhibition of human HCT116 cells at 10 uM after 48 hrs by sulforhodamine B assay
CAKI-1 = assay: Growth inhibition of human CAKI-1 cells at 10 uM after 48 hrs by sulforhodamine B assay
U-251 = assay: Growth inhibition of human U251 cells at 10 uM after 48 hrs by sulforhodamine B assay
OVCAR-8 = assay: Growth inhibition of human OVCAR8 cells at 10 uM after 48 hrs by sulforhodamine B assay
RXF 393 = assay: Growth inhibition of human RXF393 cells at 10 uM after 48 hrs by sulforhodamine B assay
HT-29 = assay: Growth inhibition of human HT-29 cells at 10 uM after 48 hrs by sulforhodamine B assay
UO-31 = assay: Growth inhibition of human UO31 cells at 10 uM after 48 hrs by sulforhodamine B assay
HCC 2998 = assay: Growth inhibition of human HCC2998 cells at 10 uM after 48 hrs by sulforhodamine B assay
TK-10 = assay: Growth inhibition of human TK10 cells at 10 uM after 48 hrs by sulforhodamine B assay
HOP-62 = assay: Growth inhibition of human HOP62 cells at 10 uM after 48 hrs by sulforhodamine B assay
OVCAR-5 = assay: Growth inhibition of human OVCAR5 cells at 10 uM after 48 hrs by sulforhodamine B assay
SNB-19 = assay: Growth inhibition of human SNB19 cells at 10 uM after 48 hrs by sulforhodamine B assay
HOP-92 = assay: Growth inhibition of human HOP92 cells at 10 uM after 48 hrs by sulforhodamine B assay
SK-OV-3 = assay: Growth inhibition of human SKOV3 cells at 10 uM after 48 hrs by sulforhodamine B assay
DU-145 = assay: Growth inhibition of human DU145 cells at 10 uM after 48 hrs by sulforhodamine B assay
M14 = assay: Growth inhibition of human M14 cells at 10 uM after 48 hrs by sulforhodamine B assay
IGROV-1 = assay: Growth inhibition of human IGROV1 cells at 10 uM after 48 hrs by sulforhodamine B assay
OVCAR-3 = assay: Growth inhibition of human OVCAR3 cells at 10 uM after 48 hrs by sulforhodamine B assay
A549 = assay: Growth inhibition of human A549/ATCC cells at 10 uM after 48 hrs by sulforhodamine B assay
KM12 = assay: Growth inhibition of human KM12 cells at 10 uM after 48 hrs by sulforhodamine B assay
786-0 = assay: Growth inhibition of human 786-0 cells at 10 uM after 48 hrs by sulforhodamine B assay
MDA-MB-231 = assay: Growth inhibition of human MDA-MB-231 cells at 10 uM after 48 hrs by sulforhodamine B assay

Measured: growth inhibition (GI)

O=C1/C(=C\c2cccn2C(=O)c2ccc(Cl)cc2)c2ccccc2N1c1c(Cl)cccc1Cl
inactive: all assays above

Cc1ccc(S(=O)(=O)n2cccc2/C=C2\C(=O)N(c3c(Cl)cccc3Cl)c3ccccc32)cc1
inactive: all assays above
